According to PubChem BioAssay (NCI):
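A five-concentration, 48-hour dose response in 96-well plates underlies each endpoint, interpolated linearly between surrounding concentrations. TGI is the concentration that stops growth completely.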

Tests used:
Assay in all cases: NCI anticancer screen, dose series, 48 h
[1] = test system: MDA-N
[2] = test system: NCI-H522 lung
[3] = test system: SR leukemia
[4] = test system: IGROV1 ovarian
[5] = test system: MDA-MB-231 breast
[6] = test system: PC-3 prostate
[7] = test system: RPMI-8226 leukemia
[8] = test system: MCF7 breast
[9] = test system: UACC-257 melanoma
[10] = test system: CAKI-1 renal
[11] = test system: SF-539 CNS
[12] = test system: OVCAR-5 ovarian
[13] = test system: HCT-116 colon
[14] = test system: COLO 205 colon
[15] = test system: U251 CNS
[16] = test system: OVCAR-8 ovarian
[17] = test system: OVCAR-4 ovarian
[18] = test system: HCC-2998 colon
[19] = test system: RXF 393 renal
[20] = test system: HOP-92 NSCLC
[21] = test system: UACC-62 melanoma
[22] = test system: HT29 colon
[23] = test system: A498 renal
[24] = test system: ACHN renal
[25] = test system: SF-295 CNS
[26] = test system: SK-MEL-28 melanoma
[27] = test system: MOLT-4 leukemia
[28] = test system: TK-10 renal
[29] = test system: SNB-75 CNS
[30] = test system: MDA-MB-435
[31] = test system: A549 NSCLC
[32] = test system: NCI/ADR-RES ovarian
[33] = test system: SK-OV-3 ovarian
[34] = test system: SNB-19 CNS
[35] = test system: DU-145 prostate
[36] = test system: SK-MEL-5 melanoma
[37] = test system: 786-0 renal
[38] = test system: T-47D breast
[39] = test system: UO-31 renal
[40] = test system: KM12 colon
[41] = test system: SW-620 colon
[42] = test system: SK-MEL-2 melanoma
[43] = test system: CCRF-CEM leukemia
[44] = test system: SN12C renal
[45] = test system: HOP-62 NSCLC
[46] = test system: M14 melanoma
[47] = test system: NCI-H226 lung
[48] = test system: OVCAR-3 ovarian
[49] = test system: MALME-3M melanoma
[50] = test system: HL-60(TB) leukemia
[51] = test system: HS 578T breast
[52] = test system: NCI-H460 lung
[53] = test system: SF-268 CNS
[54] = test system: BT-549 breast
[55] = test system: NCI-H23 lung
[56] = test system: HCT-15 colon
[57] = test system: EKVX NSCLC
[58] = test system: K-562 leukemia

Measured: TGI

Cc1ccc(/C=N/n2c(-c3ccc(C)cc3)n[nH]c2=O)cc1
61.3 µM: [3]
95.1 µM: [23]
66.9 µM: [33]
72.9 µM: [19]
> 100 µM: all other assays above
